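Results reflect a 48-hour exposure of cells in 96-well plates to compound at five concentrations. GI50 = concentration required for 50% inhibition of growth. TGI denotes the concentration required for complete inhibition of growth.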
Assays:
Assay in all cases: NCI-60 cell line screen, 48 h
MCF7 breast = tested on: MCF7 breast
SNB-19 CNS = tested on: SNB-19 CNS
OVCAR-4 ovarian = tested on: OVCAR-4 ovarian
HCT-15 colon = tested on: HCT-15 colon
SK-OV-3 ovarian = tested on: SK-OV-3 ovarian
RXF 393 renal = tested on: RXF 393 renal
T-47D breast = tested on: T-47D breast
HL-60(TB) leukemia = tested on: HL-60(TB) leukemia
UACC-62 melanoma = tested on: UACC-62 melanoma

| SMILES | TGI (MCF7 breast) [µM] | TGI (SNB-19 CNS) [µM] | TGI (OVCAR-4 ovarian) [µM] | TGI (HCT-15 colon) [µM] | TGI (SK-OV-3 ovarian) [µM] | TGI (RXF 393 renal) [µM] | TGI (T-47D breast) [µM] | TGI (HL-60(TB) leukemia) [µM] | TGI (UACC-62 melanoma) [µM] | GI50 (MCF7 breast) [µM] | GI50 (SNB-19 CNS) [µM] | GI50 (OVCAR-4 ovarian) [µM] | GI50 (HCT-15 colon) [µM] | GI50 (SK-OV-3 ovarian) [µM] | GI50 (T-47D breast) [µM] |
| --- | --- | --- | --- | --- | --- | --- | --- | --- | --- | --- | --- | --- | --- | --- | --- |
| Cc1cccc2c1CC1(Cc3c(C)cccc3C1=O)C2=O | > 100 | > 100 | > 100 | > 100 | > 100 | > 100 | > 100 | > 100 |  |  |  |  |  |  |  |
| CCCCCC(=O)OC[n+]1ccc(-c2c(COC(=O)NC(C)C)c(COC(=O)NC(C)C)c3n2CCC3)cc1 | > 100 | > 100 | > 100 | > 100 | > 100 | > 100 | > 100 | 96.8 | > 100 |  |  |  |  |  |  |
| O=C(Nc1ccccn1)c1cc2c(cc1Cl)Sc1nccn1S2(=O)=O | > 100 | > 100 | > 100 | > 100 | > 100 | 93.9 | 73.6 | 74.3 | > 100 |  |  |  |  |  |  |
| COC(=O)C1=C(C(=O)OC)C2CCC1CC2=O (stereo not given) | > 100 | > 100 | > 100 | > 100 | > 100 | > 100 |  |  | > 100 |  |  |  |  |  |  |
| Cc1cn(C2CC(/[N+]([O-])=N\Nc3ccc([N+](=O)[O-])cc3)C(CO)O2)c(=O)[nH]c1=O (stereo not given) |  | > 100 |  | > 100 | > 100 | > 100 |  | > 100 | > 100 |  |  |  |  |  |  |
| CCOC(=O)C(C(=O)OCC)C(=S)NC1OC(COC(C)=O)C(OC(C)=O)C(OC(C)=O)C1OC(C)=O (stereo not given) | > 100 | > 100 | > 100 | > 100 | > 100 | > 100 | > 100 | > 100 | > 100 |  |  |  |  |  |  |
| COc1ccc(-c2c3c(n(C4OC(COC(C)=O)C(OC(C)=O)C(OC(C)=O)C4OC(C)=O)c(=S)c2C#N)CCCC3)cc1 (stereo not given) | > 100 | > 100 | 98.9 | > 100 | > 100 | 88.7 | > 100 | > 100 | > 100 |  |  |  |  |  |  |
| CC1(C)C/C=C\CCC(O)C(O)CCC(C)(C)C1=O (stereo not given) | > 100 | > 100 | > 100 | > 100 | > 100 | > 100 | > 100 | > 100 | > 100 |  |  |  |  |  |  |
| COc1ccc(-c2cc(-c3ccncc3)nc(N)c2-c2ccc(F)cc2)cc1 | > 100 | > 100 | > 100 | > 100 | > 100 | 68.6 | > 100 |  | > 100 |  |  |  |  |  |  |
| N#C[C@H](c1nc2ccccc2[nH]1)c1nc2ccccc2nc1Cl | > 100 | 38.8 | > 53.9 | > 39.9 | > 100 | > 100 | 12.9 | 3.12 | > 38.8 |  |  |  |  |  |  |
| O=C1C=C(NCCc2ccc(O)cc2)C(=O)C=C1NCCc1ccc(O)cc1 | > 100 | > 100 | > 100 | > 100 | > 100 | > 100 | > 100 | 71.2 | > 100 |  |  |  |  |  |  |
| NCCCCNCCCNC(=O)c1csc(-c2nc(CCN)sc2Cl)n1 | > 100 | > 100 |  | > 100 | > 100 | > 100 | > 100 | > 100 | > 100 |  |  |  |  |  |  |
| ClC1(Cl)C2CCOC21n1cnc2ccccc21 (stereo not given) | > 100 | > 100 | > 100 | > 100 | > 100 | > 100 | > 100 | > 100 | > 100 |  |  |  |  |  |  |
| O=C1CSC2(CC(/C=C/c3ccccc3[N+](=O)[O-])=NN2c2cccc(S(=O)(=O)O)c2)N1c1nc2ccccc2s1 (stereo not given) | 26.4 | 35.1 | 35.3 | 35 |  | > 75 | 30.6 | 63.7 | 29 |  |  |  |  |  |  |
| O=[N+]([O-])c1ccc(N/N=C\c2ccc(O)cc2O)nc1 | > 100 | > 100 | > 100 | > 100 | > 100 |  | > 100 |  |  | 3.4 | 3.24 | 1.11 | 0.828 | 2.18 | 4.04 |
| COc1ccc(/C=C2\NC(=S)N(CN3CCOCC3)C2=O)cc1 | > 100 | > 100 | > 100 | > 100 | > 100 |  |  |  | > 100 |  |  |  |  |  |  |
| COc1ccc(C(CC(=O)c2ccc(O)cc2)C(C(=O)c2ccc(O)cc2)C(c2ccc(OC)cc2)C2C(=O)NC(=S)NC2=O)cc1 (stereo not given) | 33.2 | 43.7 | 63.2 | 45.3 |  |  |  | 85.6 | 36.1 |  |  |  |  |  |  |
| O=C1CN2CCN(CC2)CC(=O)Nc2ccc(cc2)S(=O)(=O)c2ccc(cc2)NC(=O)CN2CCN(CC2)CC(=O)Nc2ccc(cc2)S(=O)(=O)c2ccc(cc2)N1 | > 100 | > 100 | > 100 | 30.7 | > 100 | > 100 | > 100 | > 100 | > 67.9 |  |  |  |  |  |  |
| c1ccc2c(CCNC3=NCCO3)cccc2c1 | > 10 | > 10 | > 10 | > 10 | > 10 | > 10 | > 10 | > 10 | > 10 |  |  |  |  |  |  |
| CSc1c(C#N)c(=O)n(N)c2n[nH]c(C)c12 | > 100 | > 100 | > 100 | > 100 | > 100 | > 100 | > 100 | > 100 | > 100 |  |  |  |  |  |  |
| O=C1OCC(CN2CCC(n3c(=O)[nH]c4ccccc43)CC2)=C1c1ccccc1 | 96.4 | 67.3 | 39.6 | 54.9 | 94.2 | > 100 | 24.6 | 40.7 | 26.9 |  |  |  |  |  |  |
| COc1ccccc1N1C(=O)/C(=C\c2ccccc2)SC1c1cc(OC)c(OC)c(OC)c1 (stereo not given) | > 100 | > 100 | > 100 | > 100 | > 100 |  | 37.8 |  | > 100 |  |  |  |  |  |  |
| COC(=O)CCC(=O)c1ccc2c(c1)CC1(Cc3ccccc3C1)C2 | > 100 |  | > 100 |  | > 100 | > 100 | > 100 |  | > 100 |  |  |  |  |  |  |

Reference: PubChem BioAssay (NCI)
